The nature of this data set: in vitro. The following applies: rat, gh3-tre-luc cells.

Structures can show the parent of a compound that is named as a salt.

In turn, `Clc1ccc(CCC(Cn2ccnc2)Sc2c(Cl)cccc2Cl)cc1` (centres unmarked) [Butoconazole nitrate] displayed a cytotoxic concentration (CC50) at 24 h (AC50 (uM) modified / 1000) of more than 20 µM.
On the same count and under the same terms, as for `C=C(C)C(=O)OCCN(CC)CC` [2-(Diethylamino)ethyl methacrylate], the figure is more than 90 µM; as for `O=C1CN=C(c2ccccc2)c2cc(Cl)ccc2N1CC1CC1` [Prazepam], more than 90 µM.
In turn, `CC(C)CC#N` [Isovaleronitrile] yielded a CC50 at 24 h (AC50 (uM) modified / 1000) of more than 90 µM.
Still for that read-out and setting: as for `Cc1ccc(C)c2ccccc12` [1,4-Dimethylnaphthalene], the figure is more than 90 µM; as for `C=CC1CO1` (centres unmarked) [1,2-Epoxy-3-butene], more than 100 µM; as for `C=CCCCCCCCCC(=O)OCCCC` [Butyl undec-10-enoate], more than 90 µM.
`CCCN(CCC)N=O` [N-Nitrosodipropylamine] came in with a CC50 at 24 h (AC50 (uM) modified / 1000, Tox21_110001=Tox21_201860, viability, 1 nM T3 present, 24 h) of more than 90 µM.
As for `Cc1cccc(C)c1O` [2,6-Dimethylphenol], the CC50 at 24 h (AC50 (uM) modified / 1000) was more than 90 µM.
On the same count and under the same terms, with `NNc1nc(-c2ccccc2)cs1` [2-Hydrazino-4-phenylthiazole] the figure was 47 µM.
`OCCSCSCCO` [2,2'-(Methanediyldisulfanediyl)diethanol] gave a 50% cytotoxic concentration (CC50) at 24 h (AC50 (uM) modified / 1000, Tox21_110001=Tox21_301758, viability, 1 nM T3 present, 24 h) of more than 90 µM.
Under “AC50 (uM) modified / 1000”, `Cc1cccc(Nc2cc(Cl)nc(SCC(=O)O)n2)c1C` [Pirinixic acid] had a CC50 at 24 h of more than 90 µM.
On the same count and under the same terms, as for `C=CCOc1nc(OCC=C)nc(OCC=C)n1` [2,4,6-Tris(allyloxy)-1,3,5-triazine], the figure is more than 90 µM; as for `CCCCCCCCCCCC(=O)OCC` [Ethyl dodecanoate], more than 90 µM.
The same measure, in the same setting: as for `O=[N+]([O-])c1cc[n+]([O-])cc1` [4-Nitropyridine-1-oxide], the figure is more than 90 µM; as for `CCCCCCCCCCCCCC(=O)OCC(O)CO` (centres unmarked) [Tetradecanoic acid, 2,3-dihydroxypropyl ester], more than 90 µM.
On the same count and under the same terms, with `NNC(=O)CP(=O)(c1ccccc1)c1ccccc1` [Fosenazide] the figure was more than 50 µM; with `CSC1=N[C@@](C)(c2ccccc2)C(=O)N1Nc1ccccc1` [Fenamidone], more than 90 µM.
In the case of `CC[C@@H](O)C(C[C@@H](C)N(C)C)(c1ccccc1)c1ccccc1` [(+)-alpha-Methadol hydrochloride], where the note is “AC50 (uM) modified / 1000, Tox21_110001=Tox21_112828, viability, 1 nM T3 present, 24 h”, the CC50 at 24 h was more than 100 µM.
The compound `Clc1ccc(C(Cl)(Cl)Cl)cc1Cl` [1,2-Dichloro-4-(trichloromethyl)benzene] gave a CC50 at 24 h (AC50 (uM) modified / 1000) of more than 90 µM.
`CC1CCC(=O)C1=O` (centres unmarked) [3-Methyl-1,2-cyclopentanedione] showed a CC50 at 24 h (AC50 (uM) modified / 1000) of more than 100 µM.
The same measure, in the same setting: with `CCOC(=O)Oc1c(OC)cc(C(=O)O[C@@H]2C[C@@H]3CN4CCc5c([nH]c6cc(OC)ccc56)[C@H]4C[C@@H]3[C@H](C(=O)OC)[C@H]2OC)cc1OC` [Syrosingopine] the figure was more than 20 µM.
Still for that read-out and setting: with `CCCCC1CCC(O)CC1` (centres unmarked) [4-Butylcyclohexanol] the figure was more than 90 µM.
Where the note is “AC50 (uM) modified / 1000, Tox21_110001=Tox21_400042, viability, 1 nM T3 present, 24 h”, `OCCCBr` [3-Bromo-1-propanol] registered a CC50 at 24 h of more than 90 µM.
In turn, `CCCCCCCCC1CO1` (centres unmarked) [1,2-Epoxydecane] displayed a CC50 at 24 h (AC50 (uM) modified / 1000) of more than 90 µM.
Still for that read-out and setting: as for `Cc1ccc(C(C)C)cc1O` [Isopropyl-o-cresol], the figure is more than 90 µM.
In turn, `O=[N+]([O-])c1cccc(C(F)(F)F)c1` [1-Nitro-3-(trifluoromethyl)benzene] returned a CC50 at 24 h (AC50 (uM) modified / 1000) of more than 90 µM.
Same read-out and setting: as for `CCN1CCN(c2cc3c(cc2F)c(=O)c(C(=O)O)cn3C2CC2)CC1` [Enrofloxacin], the figure is more than 50 µM; as for `CSCC[C@H](N)C(=O)O` [Methionine], more than 50 µM; as for `O=C(Oc1ccccc1)c1cccc(C(=O)Oc2ccccc2)c1` [Diphenyl isophthalate], more than 100 µM.
Still for that read-out and setting: with `COC(=O)CCCCC(=O)OC` [Dimethyl adipate] the figure was more than 90 µM; with `C=C(C)C(=O)OCCOC(=O)C(=C)C` [Ethylene glycol dimethacrylate], more than 90 µM.
Same read-out and setting: as for `CC(C)N(C(=O)COc1nnc(C(F)(F)F)s1)c1ccc(F)cc1` [Flufenacet], the figure is more than 90 µM.
Compound `Cc1ccc(C2(O)CCN(CCCC(=O)c3ccc(F)cc3)CC2)cc1` [Moperone] gave a CC50 at 24 h (AC50 (uM) modified / 1000) of 30.1 µM.
On the same count and under the same terms, as for `CCOC(=O)[C@H](CCc1ccccc1)N[C@@H](C)C(=O)N1Cc2ccccc2C[C@H]1C(=O)O` [Quinapril hydrochloride], the figure is more than 90 µM; as for `CN(C)CCc1c[nH]c2cccc(OP(=O)(O)O)c12` [Psilocybin], more than 90 µM.
Same read-out and setting: with `CCOC(=O)COC(=O)c1cc(Oc2ccc(C(F)(F)F)cc2Cl)ccc1[N+](=O)[O-]` [Fluoroglycofen-ethyl] the figure was more than 90 µM.
The compound `C=C(C)C(=O)OCC1CO1` (centres unmarked) [Glycidyl methacrylate] came in with a CC50 at 24 h (AC50 (uM) modified / 1000) of more than 90 µM.
Same read-out and setting: as for `COC(C)OC` [1,1-Dimethoxyethane], the figure is more than 90 µM; as for `C[C@H]1COc2c(C3(N)CC3)c(F)cc3c(=O)c(C(=O)O)cn1c23` [Pazufloxacin], more than 50 µM.
Same read-out and setting: with `CC(C)CCCCCCCOP(=O)(Oc1ccccc1)Oc1ccccc1` [Isodecyl diphenyl phosphate] the figure was 27.3 µM; with `CCC1(c2ccccc2)C(=O)NC(=O)N(C)C1=O` (centres unmarked) [Mephobarbital], more than 50 µM.
The same measure, in the same setting: as for `COC=O` [Methyl formate], the figure is more than 8 µM; as for `N#[N+]c1ccc2c(S(=O)(=O)[O-])cccc2c1O` [1-Naphthalenesulfonic acid, 6-diazo-5,6-dihydro-5-oxo, sodium salt], more than 90 µM; as for `NCCOCCN` [2,2'-Oxybis(ethylamine)], more than 90 µM.
In the case of `CC[C@@H]1C(=O)OC[C@@H]1Cc1cncn1C` [Pilocarpine], for the setting “AC50 (uM) modified / 1000”, the CC50 at 24 h is more than 50 µM.
On the same count and under the same terms, with `CN(C)CC/C=C1\c2ccccc2CSc2ccccc21` [Dothiepin hydrochloride] the figure was 6.1 µM.
On the same count and under the same terms, as for `CCOP(=S)(OCC)Oc1cc(C)nc(C(C)C)n1` [Diazinon], the figure is more than 90 µM; as for `CN(Cc1ccc(C(C)(C)C)cc1)Cc1cccc2ccccc12` [Butenafine], 27.3 µM.
On the same count and under the same terms, as for `Cl[C@@H]1OCCO[C@H]1Cl` [2,3-Dichloro-p-dioxane], the figure is more than 90 µM; as for `CCOC(=O)c1ncn2c1CN(C)C(=O)c1c(I)cccc1-2` [Iomazenil], more than 50 µM; as for `O=[N+]([O-])c1cccc(Cl)c1` [1-Chloro-3-nitrobenzene], more than 90 µM.
As to `CCCCN(CCCC)C(=S)SSC(=S)N(CCCC)CCCC` [Tetrabutylthiuram disulfide], where the note is “AC50 (uM) modified / 1000”, the CC50 at 24 h is more than 90 µM.
On to `CC1=C(C)C(=O)C(C(CCCCCC(=O)O)c2ccccc2)=C(C)C1=O` (racemic) [(+-)-7-(3,5,6-trimethyl-1,4-benzoquinon-2-yl)-7-phenylheptanoic acid], for which the cytotoxic concentration (CC50) at 24 h (AC50 (uM) modified / 1000) is more than 50 µM.
On to `C/C=C(\C)C(=O)OCC/C=C\CC` [(3Z)-Hex-3-en-1-yl (2E)-2-methylbut-2-enoate], for which the CC50 at 24 h (AC50 (uM) modified / 1000) was more than 90 µM.
In turn, `Cc1ccc([N+](=O)[O-])c(N)c1` [5-Methyl-2-nitroaniline] showed a cytotoxic concentration (CC50) at 24 h (AC50 (uM) modified / 1000) of more than 90 µM.
For `C/C=C\C/C=C/CCCCCCCCOC(C)=O` [(9E,12Z)-9,12-Tetradecadien-1-ol acetate], the CC50 at 24 h (AC50 (uM) modified / 1000) was more than 90 µM.
Still for that read-out and setting: as for `CO[Si](OC)(OC)OC` [Tetramethyl orthosilicate], the figure is 81.5 µM.
For `Cc1cc(O)cc(C)c1Cl` [4-Chloro-3,5-dimethylphenol], the CC50 at 24 h (AC50 (uM) modified / 1000) was more than 90 µM.
Same read-out and setting: as for `CCCCCCCCCCCCNC(=N)N` [Dodine], the figure is more than 4 µM; as for `NS(=O)(=O)c1ccc(NC(=O)CCC(=O)O)cc1` [Sulfasuccinamide], more than 50 µM.
On to `CC(=O)CC(C)(C)C1CCCCC1` [4-Cyclohexyl-4-methyl-pentan-2-one], for which, under “AC50 (uM) modified / 1000”, the CC50 at 24 h was more than 90 µM.
The same measure, in the same setting: with `Cc1c(NC(=O)c2cccnc2)c(=O)n(-c2ccccc2)n1C` [Nifenazone] the figure was more than 20 µM; with `CC(C)(C)C(=O)OCOC(=O)[C@@H]1N2C(=O)[C@@H](NC(=O)[C@H](N)c3ccccc3)[C@H]2SC1(C)C` [Pivampicillin], more than 20 µM; with `CN(C)CCC=C1c2ccccc2COc2ccccc21` [Doxepin hydrochloride], 13.5 µM.
On the same count and under the same terms, as for `CO[C@H](C(=O)[C@@H](O)[C@@H](C)O)[C@@H]1Cc2cc3cc(O[C@H]4C[C@@H](O[C@H]5C[C@@H](O)[C@H](O)[C@@H](C)O5)[C@H](O)[C@@H](C)O4)c(C)c(O)c3c(O)c2C(=O)[C@H]1O[C@H]1C[C@@H](O[C@H]2C[C@@H](O[C@H]3C[C@](C)(O)[C@H](O)[C@@H](C)O3)[C@@H](O)[C@@H](C)O2)[C@H](O)[C@@H](C)O1` [Plicamycin], the figure is 0.413 µM.
Same read-out and setting: as for `CCSC(=O)N(CC(C)C)CC(C)C` [Butylate], the figure is more than 90 µM; as for `COCCOCCO` [Diethylene glycol monomethyl ether], more than 90 µM; as for `O=C(N[C@H](CO)[C@H](O)c1ccc([N+](=O)[O-])cc1)C(Cl)Cl` [Chloramphenicol], more than 90 µM.
On to `c1ccc(CSCc2ccccc2)cc1` [Benzyl sulfide], for which, for the setting “AC50 (uM) modified / 1000”, the CC50 at 24 h was more than 90 µM.
Consider `CCCCNP(N)(N)=S` [N-Butylphosphorothioic triamide], for which the CC50 at 24 h (AC50 (uM) modified / 1000, Tox21_110001=Tox21_302015, viability, 1 nM T3 present, 24 h) was more than 90 µM.
Regarding `Nc1cc(S(=O)(=O)O)ccc1O` [2-Amino-1-phenol-4-sulfonic acid], the CC50 at 24 h (AC50 (uM) modified / 1000) was more than 90 µM.
On the same count and under the same terms, with `Cc1ccc(N)cc1S(=O)(=O)O` [5-Amino-2-methylbenzenesulfonic acid] the figure was more than 90 µM; with `CC(=O)/C=C/C1=C(C)CCCC1(C)C` [beta-Ionone], more than 90 µM.

The term CC50 denotes the concentration at which the toxic effect on the cells reaches its halfway point. A low value points to harm at low concentration.

The record behind these values is PMC6792352, “Limited Chemical Structural Diversity Found to Modulate Thyroid Hormone Receptor in the Tox21 Chemical Library” (Environmental Health Perspectives, 2019).
